CCCCN1CCCCC1C(=O)Nc1c(C)cccc1C.Cl (stereo unspecified)
solubility (mole fraction)
Settings | 293.15 K | 298.15 K | 303.15 K | 308.15 K | 313.15 K | 318.15 K | 323.15 K | 328.15 K | 333.15 K
in DMF | 0.0036 | 0.0049 | 0.0062 | 0.0079 | 0.0096 | 0.0117 | 0.0128 | 0.0149 | 0.0172
in acetic acid | 0.0322 | 0.0367 | 0.0399 | 0.0475 | 0.0601 | 0.0702 | 0.0879 | 0.109 | 0.13
in ethanol | 0.0087 | 0.0099 | 0.0115 | 0.0139 | 0.0169 | 0.0207 | 0.0254 | 0.0312 | 0.0372
in isopropanol | 0.002 | 0.0023 | 0.0028 | 0.0032 | 0.0037 | 0.0045 | 0.0051 | 0.006 | 0.0069
in methanol | 0.0116 | 0.014 | 0.0167 | 0.0206 | 0.0249 | 0.0295 | 0.0346 | 0.0407 | –
in n-butanol | 0.0108 | 0.0121 | 0.0142 | 0.0164 | 0.0198 | 0.0236 | 0.0288 | 0.0355 | 0.0412
in n-propanol | 0.0051 | 0.0058 | 0.0084 | 0.0101 | 0.0135 | 0.0172 | 0.0216 | 0.0281 | 0.0342
in water | 0.0017 | 0.0019 | 0.0021 | 0.0022 | 0.0025 | 0.0028 | 0.0032 | 0.0036 | 0.0041
